2 compounds from patent US6063778A, “Cephalosporin derivatives and processes for the preparation thereof” (Il-Dong Pharm. Co., Ltd., priority 1995, dated 2000) can be followed below.

The subject of one data set is Escherichia coli TEM. As to the kind of experiment: MIC by agar dilution, in vitro activity test. The note with it: 20 h, read-out: Minimal Inhibitory Concentration (MIC). Type of data set: cell-based. The procedure: (§1) These MIC values were determined by agar dilution method: that is, two-fold dilutions of each of the test compounds were made and dispersed in a Mueller-Hinton Broth medium. Standard test strain which had the 10^6 CFU per ml was inoculated on the medium, and was incubated at 37° C. for 18 to 20 hours.
Background: In agar dilution, organisms are placed on agar that contains the substance at set levels.

In data set [1] the test system is Staphylococcus aureus 503. As to the kind of experiment: MIC by agar dilution, in vitro activity test. The note with it: 37° C., 18 to 20 hours, read-out: Minimal Inhibitory Concentration (MIC). Type of data set: cell-based. On the procedure: as §1
In data set [2] the test system is Staphylococcus aureus SG511. As to the kind of experiment: MIC by agar dilution, in vitro activity test. Format: cell-based. As to conditions: 37° C., 18 to 20 hours, read-out: Minimal Inhibitory Concentration (MIC). On the procedure: as §1
In data set [3] the test system is Pseudomonas aeruginosa 9071. Nature of the data set: MIC by agar dilution, in vitro activity test. Type of data set: cell-based. As to conditions: 37° C., 18 to 20 hours, read-out: Minimal Inhibitory Concentration (MIC). On the procedure:
as §1

The test system of data set [4] is Streptococcus pyogenes 71A. As to the kind of experiment: MIC by agar dilution, in vitro activity test. The note with it: 37° C., 18 to 20 hours, read-out: Minimal Inhibitory Concentration (MIC). Type of data set: cell-based. The procedure: as §1
Data set [5] has as its system Klebsiella aerogenes 1082E. As to the kind of experiment: MIC by agar dilution, in vitro activity test. Type of data set: cell-based. The note with it: 37° C., 18 to 20 hours, read-out: Minimal Inhibitory Concentration (MIC). On the procedure: as §1
The test system of the next data set is Escherichia coli DC 2. Nature of the data set: MIC by agar dilution, in vitro activity test. Type of data set: cell-based. As to conditions: DC2, 37° C., 18 to 20 hours, read-out: Minimal Inhibitory Concentration (MIC). On the procedure:
as §1

The next data set has as its system Salmonella typhimurium. As to the kind of experiment: MIC by agar dilution, in vitro activity test. Type of data set: cell-based. As to conditions: Salmonella enterica, 37° C., 18 to 20 hours, read-out: Minimal Inhibitory Concentration (MIC). The procedure: as §1
The test system of data set [6] is Pseudomonas aeruginosa 1592E. As to the kind of experiment: MIC by agar dilution, in vitro activity test. Format: cell-based. The note with it: 37° C., 18 to 20 hours, read-out: Minimal Inhibitory Concentration (MIC). The procedure: as §1
Data set [7] deals with Klebsiella aerogenes 1522E. Nature of the data set: MIC by agar dilution, in vitro activity test. Type of data set: cell-based. As to conditions: Klebsiella aerogenes 1522E; agar dilution, 37° C., 18 to 20 hours; read-out: Minimal Inhibitory Concentration (MIC). The procedure:
as §1

The test system of data set [8] is Enterobacter cloace 1321E. Nature of the data set: MIC by agar dilution, in vitro activity test. Format: cell-based. The note with it: 37° C., 18 to 20 hours, read-out: Minimal Inhibitory Concentration (MIC). On the procedure: as §1
Data set [9] has as its system Pseudomonas aeruginosa 1771M. As to the kind of experiment: MIC by agar dilution, in vitro activity test. As to conditions: 20 h, read-out: Minimal Inhibitory Concentration (MIC). Type of data set: cell-based. The procedure: as §1
For the next data set, the system named is Escherichia coli 078. As to the kind of experiment: MIC by agar dilution, in vitro activity test. Format: cell-based. As to conditions: 37° C., 18 to 20 hours, read-out: Minimal Inhibitory Concentration (MIC). The procedure:
as §1

The test system of data set [10] is Staphylococcus aureus 285. Nature of the data set: MIC by agar dilution, in vitro activity test. Format: cell-based. As to conditions: 37° C., 18 to 20 hours, read-out: Minimal Inhibitory Concentration (MIC). On the procedure: as §1
A further data set concerns Escherichia coli DC 0. Nature of the data set: MIC by agar dilution, in vitro activity test. Format: cell-based. As to conditions: DC0, 37° C., 18 to 20 hours, read-out: Minimal Inhibitory Concentration (MIC). On the procedure:
as §1

The next data set has as its system Enterobacter cloace P99. Nature of the data set: MIC by agar dilution, in vitro activity test. Type of data set: cell-based. As to conditions: P99, 20 h, read-out: Minimal Inhibitory Concentration (MIC). On the procedure:
as §1

In the next data set the test system is Escherichia coli 1507E. As to the kind of experiment: MIC by agar dilution, in vitro activity test. The note with it: Escherichia coli 1507E; agar dilution, 37° C., 18 to 20 hours; read-out: Minimal Inhibitory Concentration (MIC). Type of data set: cell-based. On the procedure: as §1
In data set [11] the test system is Streptococcus faecium MD 8b. As to the kind of experiment: MIC by agar dilution, in vitro activity test. Format: cell-based. As to conditions: Enterococcus faecium, MD8B, 20 h, read-out: Minimal Inhibitory Concentration (MIC). The procedure:
as §1

Data set [12] relates to Pseudomonas aeruginosa 1771. Nature of the data set: MIC by agar dilution, in vitro activity test. Format: cell-based. As to conditions: 37° C., 18 to 20 hours, read-out: Minimal Inhibitory Concentration (MIC). The procedure: These MIC values were determined by agar dilution method: that is, two-fold dilutions of each of the test compounds were made and dispersed in a Mueller-Hinton Broth medium.

Another data set deals with Pseudomonas aeruginosa. Nature of the data set: MIC by agar dilution, comparison in words. Format: cell-based. As to conditions: against Pseudomonas aeruginosa; vs Cefpirome. On the procedure: as §1
The nature of another data set: Acute toxicity study. Format: in vivo. The note with it: in vivo. The procedure: (§2) In order to illustrate usefulness of the compounds of the present invention, acute toxicity test of the compounds synthesized in the above Examples were carried out. Each dose of the compounds dissolved in saline and buffer solution (PH=7.0) was administered by intravenous or subcutaneous injection. Mortalities of the animals was recorded seven days latter.
(§3) .asterisk-pseud. Mouse: Male ICR strain, 4 weeks

For data set [13], the system named is Pseudomonas aeruginosa 9027. As to the kind of experiment: MIC by agar dilution, in vitro activity test. Format: cell-based. As to conditions: 37° C., 18 to 20 hours, read-out: Minimal Inhibitory Concentration (MIC). On the procedure:
as §1

In data set [14] the test system is Streptococcus pyogenes 77A. Nature of the data set: MIC by agar dilution, in vitro activity test. Type of data set: cell-based. As to conditions: 37° C., 18 to 20 hours, read-out: Minimal Inhibitory Concentration (MIC). On the procedure:
as §1

Data set [15] concerns Staphylococcus aureus, Escherichia coli and Pseudomonas aeruginosa. As to the kind of experiment: MIC by agar dilution, comparison in words. Format: cell-based. As to conditions: against Staphylococcus aureus, vs Cefotaxime. The procedure:
as §1

The next data set relates to Mouse. Nature of the data set: Acute toxicity study. Format: in vivo. The note with it: 10080 min. On the procedure: as §2, §3

Molecules are shown by their SMILES. ≈ marks a conversion by molar mass, not a printed value. Where two headings read alike, the source gives them in different places.

`CC[N+](C)(CC=CC(N)=O)C/C=C/C1=C(C(=O)[O-])N2C(=O)[C@@H](NC(=O)/C(=N\OC)c3nsc(N)n3)[C@H]2SC1` (stereo partly drawn) [Example 13, 7β-[(Z)-2-(5-amino-1,2,4-thiadiazol-3-yl)-2-methoxyiminoacetamido]-3-[(E)-3-[(1-carbamoyl-1-propen-3-yl)-3-ethylmethylammonio]-1-propen-1-yl]3-cephem-4-carboxylate]: the MIC was 0.05 µg/mL (≈ 0.0886 µM) in the data set on Escherichia coli TEM; 0.8 µg/mL (≈ 1.42 µM) in [1]; 0.8 µg/mL (≈ 1.42 µM) in data set [2]; 3.1 µg/mL (≈ 5.49 µM) in [3]; 0.025 µg/mL (≈ 0.0443 µM) in data set [4]; 3.1 µg/mL (≈ 5.49 µM) in [5]. The MIC in the data set with Escherichia coli DC 2 was found to be 0.2 µg/mL (≈ 0.354 µM); with Salmonella typhimurium it was 0.2 µg/mL (≈ 0.354 µM); in data set [6], 1.6 µg/mL (≈ 2.83 µM); in [7], 0.2 µg/mL (≈ 0.354 µM); in data set [8], 0.05 µg/mL (≈ 0.0886 µM); in data set [9], 0.4 µg/mL (≈ 0.708 µM). The MIC with Escherichia coli 078 is 0.05 µg/mL (≈ 0.0886 µM); in data set [10], 0.8 µg/mL (≈ 1.42 µM); with Escherichia coli DC 0, 0.025 µg/mL (≈ 0.0443 µM); with Enterobacter cloace P99, 1.6 µg/mL (≈ 2.83 µM); in the data set on Escherichia coli 1507E it was 0.1 µg/mL (≈ 0.177 µM); in data set [11] it was more than 100 µg/mL. The MIC in data set [12] is 1.6 µg/mL (≈ 2.83 µM). The “MICs compared with Cefpirome” value in the data set on Pseudomonas aeruginosa is reported as “superior to that of Cefpirome”. The LD50 at 168 h was more than 2000 mg/kg in the data set “Acute toxicity study” (mouse, iv, i.v, male ICR mouse, 4 weeks, mortality at seven days, read-out: LD50 i.v); more than 2000 mg/kg in “Acute toxicity study” (mouse, iv, intravenous routes, read-out: acute toxicity in intravenous routes); more than 3000 mg/kg in the data set “Acute toxicity study” (mouse, sc, s.c, male ICR mouse, 4 weeks, mortality at seven days, read-out: LD50 s.c).
For the compound `CC[N+](C)(CC=CC(N)=O)C/C=C/C1=C(C(=O)[O-])N2C(=O)[C@@H](NC(=O)/C(=N\OCCF)c3csc(N)n3)[C@H]2SC1` (stereo partly drawn) [Example 12, 7β-[(Z)-2-(2-aminothiazol-4-yl)-2-fluoroethoxyiminoacetamdo]-3-[(E)-3-[(1-carbamoyl-1-propen-3-yl)-3-ethylmethylammonio]-1-propen-1-yl]3-cephem-4-carboxylate], the MIC amounted to 0.05 µg/mL (≈ 0.0839 µM) in the data set on Escherichia coli TEM; 0.8 µg/mL (≈ 1.34 µM) in data set [1]; 0.8 µg/mL (≈ 1.34 µM) in data set [2]; 12.5 µg/mL (≈ 21 µM) in data set [13]; 3.1 µg/mL (≈ 5.2 µM) in data set [5]; 0.05 µg/mL (≈ 0.0839 µM) in the data set on Escherichia coli DC 2. Besides, the MIC with Salmonella typhimurium amounted to 0.4 µg/mL (≈ 0.672 µM); in [14] it was 0.025 µg/mL (≈ 0.042 µM); in [6], 6.3 µg/mL (≈ 10.6 µM); in data set [7], 0.1 µg/mL (≈ 0.168 µM); in [8], 0.05 µg/mL (≈ 0.0839 µM); in data set [9], 0.8 µg/mL (≈ 1.34 µM). Moreover, the MIC with Escherichia coli 078 is 0.025 µg/mL (≈ 0.042 µM); in data set [10] it was 0.8 µg/mL (≈ 1.34 µM); in the data set on Escherichia coli DC 0 it was less than 0.006 µg/mL; in the data set with Enterobacter cloace P99 it was 1.6 µg/mL (≈ 2.69 µM); with Escherichia coli 1507E it was 0.05 µg/mL (≈ 0.0839 µM); in [11], more than 100 µg/mL. Also, the MIC in [12] was 6.3 µg/mL (≈ 10.6 µM). In addition, the “MICs compared with Cefotaxime” value in data set [15] is on record as “superior to that of Cefotaxime”. In addition, the LD50 at 168 h in “Acute toxicity study” (iv, i.v, male ICR mouse, 4 weeks, mortality at seven days, read-out: LD50 i.v) is more than 2000 mg/kg; in “Acute toxicity study” (sc, s.c, male ICR mouse, 4 weeks, mortality at seven days, read-out: LD50 s.c), more than 3000 mg/kg. For the same compound, the “acute toxicity in intravenous routes” value in the data set on Mouse (intravenous routes) was more than 2000 mg/kg. In addition, in the data set with Mouse (subcutaneous routes), the “acute toxicity in subcutaneous routes” value was more than 3000 mg/kg.
